Earlier results as cited in patent US5627200A, “β3 -Adrenoceptor agonists and antagonists for the treatment of intestinal motility disorders, depression, prostate disease and dyslipidemia” (Pfizer Inc, priority 1994, dated 1997).

How the values were obtained:
[1] = system: rodent models of depression; settings: reported in Europ. J. Pharm., 219, 193 (1992)
[2] = system: genetic animal models of obesity and diabetes

Q: Which “activity in rodent models of depression” value [1] does the source give for `CCOC(=O)COc1ccc2c(c1)C[C@@H](NC[C@H](O)c1cccc(Cl)c1)CC2.Cl` [N-[(2S)-7-carbethoxymethoxy-1,2,3,4-tetrahydronaphth-2-yl]-(2R)-2-hydroxy-2-(3-chlorophenyl)-ethanamine hydrochloride] here?
A: Its value is “demonstrate activity in rodent models of depression”.

Q: Which results are given for `COC(=O)COc1ccc(CC(C)NCC(O)c2cccc(Cl)c2)cc1` (stereo not drawn) [N-[2-(4-carbomethoxymethoxyphenyl)-1-methylethyl]-2-hydroxy-2-(3-chlorophenyl)ethanamine]?
A: plasma fatty acids [2]: reduces; plasma triglycerides [2]: reduces
